Values after ≈ are worked out from the molar mass of the structure shown. Like-named read-outs stand apart in the source and are kept apart here.
Assays:
P. vulgaris 57A059 = test: In vitro MIC, P. vulgaris 57A059; type: cell-based; conditions: Proteus vulgaris
Description: (§1) The in vitro activity of the herein described compounds renders them useful for topical application in the form of ointments, creams and the like, or for sterilization purposes, e.g., sick-room utensils.
(§2) Table I compares the in vitro profile of 6-[D-2-phenyl-2-(amidinopropionamido)acetamido]penicillanic acid (PAP) with ampicillin (AMP) and carbenicillin (CAR).

E. coli 51A002 = test: In vitro MIC, E. coli 51A002; type: cell-based; conditions: Escherichia coli, Table I, nutrient broth
Description: as §1, §2

Ser. marcescens 63A001 = test: In vitro MIC, Ser. marcescens 63A001; type: cell-based
Description: as §1, §2

Ps. aeruginosa 52A104 = test: In vitro MIC, Ps. aeruginosa 52A104; type: cell-based
Description: as §1, §2

E. coli 51A266 [1] = test: In vitro MIC, E. coli 51A266; type: cell-based
Description: as §1, §2

Ps. aeruginosa 52A173 = test: In vitro MIC, Ps. aeruginosa 52A173; type: cell-based; conditions: Pseudomonas aeruginosa, Table I, nutrient broth
Description: as §1, §2

Kleb. pneumoniae 53A015 = test: In vitro MIC, Kleb. pneumoniae 53A015; type: cell-based; conditions: Klebsiella pneumoniae, Table I, nutrient broth
Description: as §1, §2

Kleb. pneumoniae 53A009 = test: In vitro MIC, Kleb. pneumoniae 53A009; type: cell-based
Description: as §1, §2

Ps. aeruginosa 52A490 = test: In vitro MIC, Ps. aeruginosa 52A490; type: cell-based
Description: as §1, §2

A. aerogenes 55A002 = test: In vitro MIC, A. aerogenes 55A002; type: cell-based; conditions: Klebsiella aerogenes, Table I, nutrient broth
Description: as §1, §2

S. aureus 01A005 = test: In vitro MIC, S. aureus 01A005; type: cell-based; conditions: Table III
Description: as §1, §2

P. mirabilis 57C015 = test: In vitro MIC, P. mirabilis 57C015; type: cell-based; conditions: Table III
Description: as §1, §2

A. aerogenes = test: In vitro MIC, A. aerogenes (strain not given); type: cell-based; conditions: Table III
Description: as §1, §2

E. coli 51A266 [2] = test: In vivo protection of mice against experimental E. coli 51A266 infection; conditions: doses 0.5, 4 and 24 hours; for % Survivors: Table IV; for % Protection (% survivors): Table II
Experimental: Table II presents the in vivo comparison data for the three compounds contained in Table I aganst several experimental infections in mice.
The values (% survivors) are obtained under standard conditions known to those skilled in the art. For the E. coli organism, the test compound is administered to the infected mice by a multiple dosing regimen in which the first dose is given 0.5 hour after inoculation and is repeated 4 and 24 hours later.
Table IV presents in vivo comparison data for the four compounds in Table III against E. coli infections in mice.
The values, reported as % survivors, are obtained under standard conditions familiar to those skilled in the art. The test compound is administered to the infected mice by a multiple dosing regimen in which the first dose is given 0.5 hour after inoculation and is repeated 4 and 24 hours later.

A. aerogenes 55A004 = test: In vitro MIC, A. aerogenes 55A004; type: cell-based; conditions: Klebsiella aerogenes, Table I, nutrient broth
Description: as §1, §2

S. aureus = test: In vitro MIC, S. aureus; type: cell-based; conditions: Staphylococcus aureus, Table I, nutrient broth
Description: as §1, §2

gram-negative bacteria = conditions: in words, U.S. Pat. No. 3,142,673, cited from earlier work
[3] = Table I, P. vulgaris 57A059, nutrient broth, read-out: MIC
[4] = Serratia marcescens, Table I, nutrient broth, read-out: MIC
[5] = Pseudomonas aeruginosa, Table I, nutrient broth, read-out: MIC
[6] = Escherichia coli, Table I, E. coli 51A266, nutrient broth, read-out: MIC
[7] = Klebsiella pneumoniae, Table I, nutrient broth, read-out: MIC

| SMILES | MIC (E. coli 51A002) | MIC (Ser. marcescens 63A001; [4]) | MIC (Ps. aeruginosa 52A104; [5]) | MIC (Ps. aeruginosa 52A173) | MIC (Kleb. pneumoniae 53A015) | MIC (Kleb. pneumoniae 53A009; [7]) | MIC (S. aureus 01A005) | MIC (Ser. marcescens 63A001; Table III) | MIC (P. mirabilis 57C015) | MIC (Ps. aeruginosa 52A104; Table III) | MIC (A. aerogenes) | MIC (E. coli 51A266 [1]; Table III, E. coli 51A266) | % Survivors (E. coli 51A266 [2]; PO, 25 mg./kg.) | % Survivors (E. coli 51A266 [2]; PO, 50 mg./kg.) | % Survivors (E. coli 51A266 [2]; PO, 200 mg./kg.) | % Survivors (E. coli 51A266 [2]; SC, 25 mg./kg.) | % Survivors (E. coli 51A266 [2]; SC, 50 mg./kg.) | % Survivors (E. coli 51A266 [2]; SC, 200 mg./kg.) | MIC (Kleb. pneumoniae 53A009; Table III) | MIC (Ps. aeruginosa 52A490; Table III) | further results |
| --- | --- | --- | --- | --- | --- | --- | --- | --- | --- | --- | --- | --- | --- | --- | --- | --- | --- | --- | --- | --- | --- |
| CC1(C)S[C@@H]2[C@H](NC(=O)[C@H](NC(=O)CCC(=N)N)c3ccccc3)C(=O)N2[C@H]1C(=O)O [PAP, 6-[D-2-phenyl-2-(amidinopropionamido)acetamido]penicillanic acid] | 200 µg/mL (≈ 447 µM) | 3.12 µg/mL (≈ 6.97 µM) | 12.5 µg/mL (≈ 27.9 µM) | 0.78 µg/mL (≈ 1.74 µM) | > 200 µg/mL | 25 µg/mL (≈ 55.9 µM) |  |  |  |  |  |  |  |  |  |  |  |  |  |  | MIC (P. vulgaris 57A059; [3]): 1.56 µg/mL (≈ 3.49 µM); MIC (E. coli 51A266 [1]; [6]): 1.56 µg/mL (≈ 3.49 µM); MIC (Ps. aeruginosa 52A490; [5]): 1.56 µg/mL (≈ 3.49 µM); MIC (A. aerogenes 55A002): 100 µg/mL (≈ 223 µM) |
| CC1(C)S[C@@H]2[C@H](NC(=O)C(NC(=O)CNC(=N)c3ccc(Br)cc3)c3ccccc3)C(=O)N2[C@H]1C(=O)O (stereo partly drawn) [X = Br] |  |  |  |  |  |  | 0.39 µg/mL (≈ 0.663 µM) | 6.25 µg/mL (≈ 10.6 µM) | 3.12 µg/mL (≈ 5.3 µM) | 25 µg/mL (≈ 42.5 µM) | 3.12 µg/mL (≈ 5.3 µM) | 0.39 µg/mL (≈ 0.663 µM) | 10% | 0% | 0% | 50% | 60% | 90% | 12.5 µg/mL (≈ 21.2 µM) | 6.25 µg/mL (≈ 10.6 µM) |  |
| CC1(C)S[C@@H]2[C@H](NC(=O)[C@H](N)c3ccccc3)C(=O)N2[C@H]1C(=O)O [AMP, ampicillin, reference compound] | 200 µg/mL (≈ 572 µM) | 200 µg/mL (≈ 572 µM) | 200 µg/mL (≈ 572 µM) | 38 µg/mL (≈ 109 µM) | 250 µg/mL (≈ 715 µM) | 100 µg/mL (≈ 286 µM) |  |  |  |  |  |  |  |  |  |  |  |  |  |  | MIC (P. vulgaris 57A059; [3]): 6 µg/mL (≈ 17.2 µM); MIC (E. coli 51A266 [1]; Escherichia coli, 51A266): 3.12 µg/mL (≈ 8.93 µM); MIC (A. aerogenes 55A004): 5 µg/mL (≈ 14.3 µM); MIC (S. aureus): 0.09 µg/mL (≈ 0.258 µM); % Protection (% survivors) (E. coli 51A266 [2]; PO, 50 mg./kg.): 80%; % Protection (% survivors) (E. coli 51A266 [2]; PO, 200 mg./kg.): 90%; % Protection (% survivors) (E. coli 51A266 [2]; SC, 50 mg./kg.): 80%; % Protection (% survivors) (E. coli 51A266 [2]; SC, 200 mg./kg.): 90%; MIC (Ps. aeruginosa 52A490; [5]): 0.78 µg/mL (≈ 2.23 µM); MIC (A. aerogenes 55A002): 100 µg/mL (≈ 286 µM) |
| CC1(C)S[C@@H]2[C@H](NC(=O)C(NC(=O)CNC(=N)c3ccccc3)c3ccccc3)C(=O)N2[C@H]1C(=O)O (stereo partly drawn) [X = H] |  |  |  |  |  |  | 0.78 µg/mL (≈ 1.53 µM) | 12.5 µg/mL (≈ 24.5 µM) | 12.5 µg/mL (≈ 24.5 µM) | 25 µg/mL (≈ 49.1 µM) | 25 µg/mL (≈ 49.1 µM) | 12.5 µg/mL (≈ 24.5 µM) | 0% | 0% | 10% | 10% | 70% | 90% | 100 µg/mL (≈ 196 µM) | 12.5 µg/mL (≈ 24.5 µM) |  |
| CC1(C)S[C@@H]2[C@H](NC(=O)C(C(=O)O)c3ccccc3)C(=O)N2[C@H]1C(=O)O (stereo partly drawn) [CAR, carbenicillin] | 200 µg/mL (≈ 529 µM) | 25 µg/mL (≈ 66.1 µM) | 50 µg/mL (≈ 132 µM) | 75 µg/mL (≈ 198 µM) | > 200 µg/mL | 200 µg/mL (≈ 529 µM) |  |  |  |  |  |  |  |  |  |  |  |  |  |  | utility via oral administration (gram-negative bacteria; oral): limited utility via oral administration; efficacy against gram-negative bacteria (gram-negative bacteria; parenteral route): greater efficacy against gram-negative bacteria via the parenteral route of administration; MIC (P. vulgaris 57A059; 57A059): 12.5 µg/mL (≈ 33 µM); MIC (E. coli 51A266 [1]; [6]): 3.12 µg/mL (≈ 8.25 µM); MIC (A. aerogenes 55A004): 50 µg/mL (≈ 132 µM); MIC (S. aureus): 1.56 µg/mL (≈ 4.12 µM); MIC (Ps. aeruginosa 52A490; [5]): 0.6 µg/mL (≈ 1.59 µM); MIC (A. aerogenes 55A002): 25 µg/mL (≈ 66.1 µM) |
| CC1(C)S[C@@H]2[C@H](NC(=O)C(NC(=O)CNC(=N)c3ccc(Cl)cc3)c3ccccc3)C(=O)N2[C@H]1C(=O)O (stereo partly drawn) [X = Cl] |  |  |  |  |  |  | 0.39 µg/mL (≈ 0.717 µM) | 6.25 µg/mL (≈ 11.5 µM) | 3.12 µg/mL (≈ 5.73 µM) | 25 µg/mL (≈ 46 µM) | 3.12 µg/mL (≈ 5.73 µM) | 0.78 µg/mL (≈ 1.43 µM) | 0% | 0% | 0% | 50% | 60% | 70% | 12.5 µg/mL (≈ 23 µM) | 12.5 µg/mL (≈ 23 µM) |  |
| CC1(C)S[C@@H]2[C@H](NC(=O)C(NC(=O)CNC(=N)c3ccc(F)cc3)c3ccccc3)C(=O)N2[C@H]1C(=O)O (stereo partly drawn) [X = F] |  |  |  |  |  |  | 0.39 µg/mL (≈ 0.739 µM) | 6.25 µg/mL (≈ 11.8 µM) | 3.12 µg/mL (≈ 5.91 µM) | 12.5 µg/mL (≈ 23.7 µM) | 25 µg/mL (≈ 47.4 µM) | 1.56 µg/mL (≈ 2.96 µM) | 10% | 0% | 10% | 50% | 70% | 90% | 25 µg/mL (≈ 47.4 µM) | 3.12 µg/mL (≈ 5.91 µM) |  |

Source: patent US3951952A, “Broad spectrum antibiotics” (Pfizer Inc., priority 1973, dated 1976)
